Columns and labels:
Type in all cases: cell-based
[1] = target: T1, parathyroid cell calcium receptor (Bos taurus, UniProt P35384); assay: Cl- current in Xenopus oocytes injected with bovine parathyroid cell poly(A)+-mRNA; set-up: Whole pieces of gland were used to prepare mRNA that directs the expression of the calcium receptor in Xenopus oocytes; expressed in transfected cells; host or cells: Xenopus laevis oocytes injected with total poly(A)+ mRNA from bovine parathyroid glands; settings: 100 μM
T1 sequence (P35384 20-1085): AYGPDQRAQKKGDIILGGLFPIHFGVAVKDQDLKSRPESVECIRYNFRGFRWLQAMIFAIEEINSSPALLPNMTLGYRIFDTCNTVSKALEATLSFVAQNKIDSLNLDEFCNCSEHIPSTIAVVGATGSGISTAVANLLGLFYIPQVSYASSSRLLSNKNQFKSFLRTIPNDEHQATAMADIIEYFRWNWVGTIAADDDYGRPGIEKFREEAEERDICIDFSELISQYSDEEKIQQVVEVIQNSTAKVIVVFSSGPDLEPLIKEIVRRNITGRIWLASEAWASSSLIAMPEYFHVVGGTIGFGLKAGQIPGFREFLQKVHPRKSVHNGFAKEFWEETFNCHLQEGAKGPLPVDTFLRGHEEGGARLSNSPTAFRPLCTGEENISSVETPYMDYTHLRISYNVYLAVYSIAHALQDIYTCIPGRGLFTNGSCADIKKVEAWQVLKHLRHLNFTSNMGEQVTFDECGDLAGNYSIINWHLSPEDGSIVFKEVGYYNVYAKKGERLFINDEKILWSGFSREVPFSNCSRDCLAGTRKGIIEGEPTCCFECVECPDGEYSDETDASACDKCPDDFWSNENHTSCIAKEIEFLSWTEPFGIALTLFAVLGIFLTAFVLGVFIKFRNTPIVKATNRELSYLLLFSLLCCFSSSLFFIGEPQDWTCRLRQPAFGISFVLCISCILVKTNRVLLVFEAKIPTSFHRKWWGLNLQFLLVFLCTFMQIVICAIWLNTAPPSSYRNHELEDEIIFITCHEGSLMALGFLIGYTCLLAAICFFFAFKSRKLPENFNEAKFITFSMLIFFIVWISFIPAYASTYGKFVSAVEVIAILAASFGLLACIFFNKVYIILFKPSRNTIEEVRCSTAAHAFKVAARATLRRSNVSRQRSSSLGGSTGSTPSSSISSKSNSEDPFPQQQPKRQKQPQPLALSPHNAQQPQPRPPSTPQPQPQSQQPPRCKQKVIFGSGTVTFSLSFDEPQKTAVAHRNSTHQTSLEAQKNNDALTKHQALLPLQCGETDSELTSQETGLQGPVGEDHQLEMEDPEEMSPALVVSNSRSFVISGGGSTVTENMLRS
Experimental: (§1) Following incubation, an oocyte was placed into a 100-μl plastic chamber and superfused with MBS at a flow rate of 0.5 ml/min using a peristaltic pump. Test molecules or inorganic polycations were added by rapidly moving the tubing into different buffers. Recording and current-passing electrodes were constructed from thin-wall capillary tubing pulled to a resistance of 1-3 Mohms and filled with 3 M KCl. […] Currents were recorded directly onto a strip chart recorder.
Dissociated bovine parathyroid cells were used to further explore the mechanism of action of NPS R-467 at the receptor level. […] It does, however, elicit responses in parathyroid cells and in oocytes when a small amount of extracellular Ca^2+ is present.

[2] = target: T1, parathyroid cell calcium receptor; assay: Mobilization of intracellular Ca2+ ([Ca2+]i, fura-2) in bovine parathyroid cells; set-up: Parathyroid glands were obtained from freshly slaughtered calves (12-15 weeks old); endogenous in cells; host or cells: dissociated primary bovine (calf) parathyroid cells; settings: Table 6; bovine parathyroid cells; read-out: EC50 PARATHYROID
Experimental: This section describes procedures used to obtain and treat parathyroid cells from calves and humans. […] Human parathyroid glands, were obtained from patients undergoing surgical removal of parathyroid tissue for primary or uremic hyperparathyroidism (uremic HPT), and were treated similarly to bovine tissue.
Glands were trimmed of excess fat and connective tissue and then minced with fine scissors into cubes approximately 2-3 mm on a side. Dissociated parathyroid cells were prepared by collagenase digestion and then purified by centrifugation in Percoll buffer. The resultant parathyroid cell preparation was essentially devoid of red blood cells, adipocytes, and capillary tissue as assessed by phase contrast microscopy and Sudan black B staining. Dissociated and purified parathyroid cells were present as small clusters containing 5 to 20 cells.
The cells were then pelleted, resuspended in the same buffer, but lacking the ester, and incubated a further 15 minutes at 37° C. The cells were subsequently washed twice with PCB containing 0.5 mM CaCl2 and 0.5% BSA and maintained at room temperature (about 20° C.) Immediately before use, the cells were diluted five-fold with prewarmed 0.5 mM CaCl2-PCB to obtain a final BSA concentration of 0.1%. The concentration of cells in the cuvette used for fluorescence recording was 1−2×10^6/ml.
The fluorescence of indicator-loaded cells was measured at 37° C. in a spectrofluorimeter (Biomedical Instrumentation Group, University of Pennsylvania, Philadelphia, Pa.) equipped with a thermostated cuvette holder and magnetic stirrer using excitation and emission wavelengths of 340 and 510 nm, respectively. […] Leakage of dye is dependent on temperature and most occurs within the first 2 minutes after warming the cells in the cuvette. Dye leakage increases only very slowly thereafter. To correct the calibration for dye leakage, cells were placed in the cuvette and stirred at 37° C. for 2-3 minutes. The cell suspension was then removed, the cells pelleted, and the supernatant returned to a clean cuvette. […] This estimate was subtracted from the apparent Fmin.

[3] = target: T2, bovine parathyroid cell calcium receptor (Bos taurus, UniProt P35384); assay: Cl- current in Xenopus oocytes injected with BoPCaR 1
T2 construct: isolation of a single clone (BoPCaR 1) with a cDNA insert of 5.3 kb; expressed in transfected cells
T2 sequence (P35384 20-1085): T1 sequence (P35384 20-1085)
Experimental: Several pharmacological and biochemical criteria were used to identify this clone as encoding a bona fide bovine parathyroid Ca^2+ receptor. […] These responses increased markedly over a period of one to four days after injection of the eggs with cRNA prepared from the BoPCaR 1 cDNA. Furthermore, the ranges of the concentrations of the two cations eliciting this response were very similar to those shown previously to act on bovine parathyroid cells in vitro.
Xenopus oocytes were injected with BoPCaR 1, the 5.3 Kb cDNA encoding a bovine parathyroid cell calcium receptor as described in Example 25. After two to three days, Cl^− currents were examined in the oocytes using a two-electrode voltage clamp.
Xenopus oocytes were injected with BoPCaR 1 as described in Example 25. After two to three days, Cl^− currents were examined in the oocytes using two electrode voltage clamp.

[4] = target: T3, osteoclast calcium receptor (Rattus norvegicus, UniProt P48442); assay: [Ca2+]i (indo-1) in single rat osteoclasts
T3 sequence (P48442 20-1079): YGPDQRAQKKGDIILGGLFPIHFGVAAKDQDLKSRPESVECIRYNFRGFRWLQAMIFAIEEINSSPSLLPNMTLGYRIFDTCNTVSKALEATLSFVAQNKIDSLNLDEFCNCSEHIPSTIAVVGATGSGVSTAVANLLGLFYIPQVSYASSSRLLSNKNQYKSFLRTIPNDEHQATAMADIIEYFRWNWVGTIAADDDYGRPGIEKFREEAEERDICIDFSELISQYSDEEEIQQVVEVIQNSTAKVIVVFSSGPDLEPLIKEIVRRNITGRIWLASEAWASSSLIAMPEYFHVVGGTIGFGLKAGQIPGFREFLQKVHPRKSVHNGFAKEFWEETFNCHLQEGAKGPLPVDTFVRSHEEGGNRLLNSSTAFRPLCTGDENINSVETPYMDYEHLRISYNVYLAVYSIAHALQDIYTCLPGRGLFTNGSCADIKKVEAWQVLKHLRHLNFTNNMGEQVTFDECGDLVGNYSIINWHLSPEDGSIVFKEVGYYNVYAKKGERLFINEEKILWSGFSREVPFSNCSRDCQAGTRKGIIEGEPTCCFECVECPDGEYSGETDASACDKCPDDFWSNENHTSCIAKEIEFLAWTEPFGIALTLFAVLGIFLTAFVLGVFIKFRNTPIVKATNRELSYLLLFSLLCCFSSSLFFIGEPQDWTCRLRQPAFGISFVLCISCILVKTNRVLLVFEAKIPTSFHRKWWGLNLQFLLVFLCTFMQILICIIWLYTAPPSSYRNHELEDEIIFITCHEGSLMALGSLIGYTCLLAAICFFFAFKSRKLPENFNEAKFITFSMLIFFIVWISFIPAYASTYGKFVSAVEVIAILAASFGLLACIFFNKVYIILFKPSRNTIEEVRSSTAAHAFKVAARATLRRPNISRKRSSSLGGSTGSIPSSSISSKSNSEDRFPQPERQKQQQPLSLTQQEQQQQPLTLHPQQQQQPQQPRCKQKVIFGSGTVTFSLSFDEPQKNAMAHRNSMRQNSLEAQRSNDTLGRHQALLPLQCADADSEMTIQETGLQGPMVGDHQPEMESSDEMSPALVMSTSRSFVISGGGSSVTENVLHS

calcium receptor = target: T4, calcium receptor (Homo sapiens, UniProt P41180); assay: Cl- current in Xenopus oocytes injected with human parathyroid cell mRNA; settings: hexacyclen 135 μM, neomycin 100 μM, NPS 382 5 mM
T4 construct: poly(A)^+-enriched mRNA from human parathyroid tissue (hyperplastic glands from a case of secondary HPT); expressed in transfected cells; host or cells: Xenopus laevis oocytes injected with poly(A)+ mRNA from hyperplastic human parathyroid glands
T4 sequence (P41180 20-1078): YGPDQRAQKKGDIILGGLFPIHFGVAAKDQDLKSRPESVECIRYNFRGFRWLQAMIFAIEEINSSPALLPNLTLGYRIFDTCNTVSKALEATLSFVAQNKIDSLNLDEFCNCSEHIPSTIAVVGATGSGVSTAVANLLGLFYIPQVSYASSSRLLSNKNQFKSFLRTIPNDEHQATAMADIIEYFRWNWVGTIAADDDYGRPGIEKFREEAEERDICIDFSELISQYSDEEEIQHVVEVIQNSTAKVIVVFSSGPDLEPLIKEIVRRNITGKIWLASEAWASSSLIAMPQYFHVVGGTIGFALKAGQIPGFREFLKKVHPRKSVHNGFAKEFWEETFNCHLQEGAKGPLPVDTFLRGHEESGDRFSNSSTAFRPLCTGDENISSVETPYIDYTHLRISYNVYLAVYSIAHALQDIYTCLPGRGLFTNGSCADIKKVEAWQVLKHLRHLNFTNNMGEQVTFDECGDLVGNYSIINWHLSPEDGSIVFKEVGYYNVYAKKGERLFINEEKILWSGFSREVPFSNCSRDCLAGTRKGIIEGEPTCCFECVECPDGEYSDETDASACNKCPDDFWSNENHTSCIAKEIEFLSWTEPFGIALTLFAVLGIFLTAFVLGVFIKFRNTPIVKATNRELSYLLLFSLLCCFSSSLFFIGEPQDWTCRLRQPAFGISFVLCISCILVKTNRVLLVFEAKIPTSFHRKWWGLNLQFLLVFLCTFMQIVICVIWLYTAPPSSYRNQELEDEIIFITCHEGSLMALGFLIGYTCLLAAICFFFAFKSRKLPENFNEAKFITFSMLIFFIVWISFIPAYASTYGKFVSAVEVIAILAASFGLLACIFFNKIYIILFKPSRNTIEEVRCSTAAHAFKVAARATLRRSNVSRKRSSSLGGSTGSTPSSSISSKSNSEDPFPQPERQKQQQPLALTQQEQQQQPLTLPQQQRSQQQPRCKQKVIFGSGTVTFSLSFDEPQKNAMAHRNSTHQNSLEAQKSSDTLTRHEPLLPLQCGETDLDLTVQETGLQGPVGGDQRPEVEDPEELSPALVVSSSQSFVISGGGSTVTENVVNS
Experimental: Oocytes were injected with poly(A)^+-enriched mRNA from human parathyroid tissue (hyperplastic glands from a case of secondary HPT).
as §1
Using this screen allows one to test for an action directly on the calcium receptor. Oocytes expressing the calcium receptor also responded to several molecules active on intact parathyroid cells when screened as follows. […] This offers rather compelling evidence showing that these molecules act on the calcium receptor or on some other protein intimately associated with its function.

Bovine parathyroid cells = settings: 10 μM isoproterenol 15 min; no pertussis toxin; 2.0 mM Ca2+, 200 μM spermine, 30 μM neomycin B, 2 μg/ml protamine; mean ± SEM
Experimental: This section describes measuring cyclic AMP levels. Cells were incubated as above for PTH secretion studies and at the end of the incubation, a 0.15-ml sample was taken and transferred to 0.85 ml of hot (70° C.) water and heated at this temperature for 5-10 minutes. The tubes were subsequently frozen and thawed several times and the cellular debris sedimented by centrifugation. Portions of the supernatant were acetylated and cyclic AMP concentrations determined by radioimmunoassay.
Bovine parathyroid cells were cultured for 16 hours with or without 100 ng/ml pertussis toxin. […] Each value is the mean±SEM of three experiments.

With `CC(NCCC(c1ccccc1)c1ccccc1)c1ccccc1` (racemic) [Fendiline, fendiline] the Cl- current [1] was “elicits oscillatory increases in Cl^− current” and the EC50 [2] was 15 µM.
With `NCCCNCCCCNCCCNCCCN(O)CCCNC(=O)Cc1c[nH]c2ccccc12` [NPS 017, Agatoxin 489] the Cl- current ([3]; 1 mM extracellular Ca2+) was “oscillatory increases in the Cl^− current” and the “EC50 OSTEOCLAST” value ([4]; Table 6, rat osteoclasts, indo-1) was “inactive”.
With `NCCCN(CCCN)CCCNCCCCNCCCN(CCCN)CCCN` [NPS 382, N^1, N^1, N^5, N^14, N^14-tetrakis-(3-aminopropyl)spermine] the “mobilization of intracellular Ca2+ in oocytes” value (calcium receptor) was “effective”.
With `COc1cccc([C@H](C)NCCCc2ccccc2Cl)c1` [NPS S-568] the “concentration eliciting Cl- current responses” value [3] was 100 µM.
For `NCCCCNCCCN` [Spermidine, spermidine], the “compounds that caused any large increase in [Ca2+]i” value [4] was “none”.
`NCCCNCCCCNCCCN` [Spermine, spermine] was tested, and the “cyclic AMP (% of control), control” value (Bovine parathyroid cells) was 23 ± 5 % of control.
